According to US12617783B2, “Heterocyclic GLP-1R agonists” (BIOMEA FUSION, INC., priority 2024, dated 2026):

molecular target: T1, human GLP-1R (Homo sapiens, UniProt P43220); test: GLP-1R cAMP assay (Example B1b, HTRF, 30 min at 37°); type: cell-based; conditions: cAMP accumulation in HEK293 expressing human GLP-1R, no BETP, 30 min at 37° (Method B1b), Table 1
T1 construct: host or cells: HEK293
Description: Assay was carried out with HEK293 expressing human GLP-1R using HTRF assay, developed by Wuxi Apptec. The method is a competitive assay between native cAMP produced by the cells and exogenous cAMP labeled with a proprietary dye d2. The tracer binding is visualized by a mAb anti-cAMP labeled with Cryptate. The signal (i.e. energy transfer) is inversely proportional to the concentration of CAMP in either standard or experimental sample. Compounds were tested in the absence of BETP. Ten microliter of cell suspension in assay buffer (5 mM HEPES, 500 μM IBMX, 0.1% BSA) were added to each well (1,000 cells per well) in a low volume 384-well plate for the assay. Serially diluted compounds were added in 100 nL volume to duplicate wells, by Labcyte Echo. GLP-1 (7-37) was used as positive control. Assay plate was incubated for 30 minutes at 37°. Stock of cAMP Detection Solution was prepared by mixing 38 parts of cAMP lysis buffer, 1 part of cAMP-D2, 1 part of anti-cAMP cryptate reagent (Cisbio #62AM4PEJ). Ten microliter of the cAMP Detection Solution was added to each well, and the assay plate was incubated for 1 hour at room temperature in the dark. Plates were read on Envision plate reader. The data were analyzed by ScreenUltra in Dotmatics, with % activation expressed using following formula: (Signal ratio […]*10000−negative control)/(postive control−negative control)*100. Dose response curves were plotted and EC50 values calculated by non-linear regression using 4-parameter fit. The potency (EC50) values for cAMP accumulation in HEK293 cells are reported in the Table 1 below (for compounds ID 610-708).

T1 sequence (P43220 24-463): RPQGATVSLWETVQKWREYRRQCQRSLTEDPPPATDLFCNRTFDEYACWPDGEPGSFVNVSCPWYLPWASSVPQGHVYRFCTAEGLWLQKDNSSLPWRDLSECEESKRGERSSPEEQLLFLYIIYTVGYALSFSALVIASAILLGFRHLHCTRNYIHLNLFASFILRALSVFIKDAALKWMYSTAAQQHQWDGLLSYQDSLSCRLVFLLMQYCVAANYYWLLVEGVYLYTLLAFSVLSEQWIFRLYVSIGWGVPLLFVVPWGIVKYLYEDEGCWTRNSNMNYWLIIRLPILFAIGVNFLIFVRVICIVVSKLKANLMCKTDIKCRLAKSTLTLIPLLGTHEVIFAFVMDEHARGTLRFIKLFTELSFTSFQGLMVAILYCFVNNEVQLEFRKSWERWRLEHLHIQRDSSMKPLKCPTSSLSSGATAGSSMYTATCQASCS

Row | EC50 [µM] | Compound
1 | 0.0025 | Cc1cc(-n2nc3c(c2-n2ccn(-c4ccc5c(cnn5C)c4F)c2=O)[C@@H]2CCC[C@H](C3)N2C(=O)c2cc3cc([C@H]4CCOC(C)(C)C4)cc(F)c3n2[C@@]2(c3noc(=O)[nH]3)C[C@@H]2C)cc(C)c1F [Compound 707, 3-((1S,2S)-1-(5-((S)-2,2-dimethyltetrahydro-2H-pyran-4-yl)-7-fluoro-2-((4S,8R)-3-(3-(4-fluoro-1-methyl-1H-indazol-5-yl)-2-oxo-2,3-dihydro-1H-imidazol-1-yl)-2-(4-fluoro-3,5-dimethylphenyl)-4,5,6,7,8,9-hexahydro-2H-4,8-epiminocycloocta [c]pyrazole-10-carbonyl)-1H-indol-1-yl)-2-methylcyclopropyl)-1,2,4-oxadiazol-5 (4H)-one]
2 | 0.004 | Cc1cc(-n2nc3c(c2-n2ccn(-c4ccc5c(c4)N(C)C(=O)C5=O)c2=O)[C@@H]2CCC[C@H](C3)N2C(=O)c2cc3cc([C@H]4CCOC(C)(C)C4)ccc3n2[C@@]2(c3noc(=O)[nH]3)C[C@@H]2C)cc(C)c1F [Compound 710, 6-(3-((4S,8R)-10-(5-((S)-2,2-dimethyltetrahydro-2H-pyran-4-yl)-1-((1S,2S)-2-methyl-1-(5-oxo-4,5-dihydro-1,2,4-oxadiazol-3-yl)cyclopropyl)-1H-indole-2-carbonyl)-2-(4-fluoro-3,5-dimethylphenyl)-4,5,6,7,8,9-hexahydro-2H-4,8-epiminocycloocta [c]pyrazol-3-yl)-2-oxo-2,3-dihydro-1H-imidazol-1-yl)-1-methylindoline-2,3-dione]
3 | 0.006 | Cc1cc(-n2nc3c(c2-n2ccn(-c4ccc5c(cnn5C)c4F)c2=O)[C@@H]2CC[C@H](C3)N2C(=O)c2cc3cc([C@H]4CCOC(C)(C)C4)cc(F)c3n2[C@@]2(c3noc(=O)[nH]3)C[C@@H]2C)cc(C)c1F [Compound 711, 3-[(1S,2S)-1-[5-[(4S)-2,2-dimethyltetrahydropyran-4-yl]-7-fluoro-2-[(1S,8R)-4-(4-fluoro-3,5-dimethyl-phenyl)-3-[3-(4-fluoro-1-methyl-indazol-5-yl)-2-oxo-imidazol-1-yl]-4,5,11-triazatricyclo[6.2.1.02,6]undeca-2,5-diene-11-carbonyl]indol-1-yl]-2-methyl-cyclopropyl]-4H-1,2,4-oxadiazol-5-one]
4 | 0.002 | Cc1cc(-n2nc3c(c2-n2ccn(-c4ccc5c(c4)C4(CC4)C(=O)N5C)c2=O)[C@@H]2CCC[C@H](C3)N2C(=O)c2cc3cc([C@H]4CCOC(C)(C)C4)ccc3n2[C@@]2(c3noc(=O)[nH]3)C[C@@H]2C)cc(C)c1F [Compound 714, 3-((1S,2S)-1-(5-((S)-2,2-dimethyltetrahydro-2H-pyran-4-yl)-2-((4S,8R)-2-(4-fluoro-3,5-dimethylphenyl)-3-(3-(1′-methyl-2′-oxospiro[cyclopropane-1,3′-indolin]-5′-yl)-2-oxo-2,3-dihydro-1H-imidazol-1-yl)-4,5,6,7,8,9-hexahydro-2H-[4,8]epiminocycloocta [c]pyrazole-10-carbonyl)-1H-indol-1-yl)-2-methylcyclopropyl)-1,2,4-oxadiazol-5 (4H)-one]

Row | Compound | EC50 [µM]
5 | Cc1cc(-n2nc3c(c2-n2ccn(-c4ccc5c(cnn5C)c4F)c2=O)[C@@H]2CC[C@H](C3)N2C(=O)c2c(F)c3cc(C4CCOC(C)(C)C4)ccc3n2[C@@]2(c3noc(=O)[nH]3)C[C@@H]2C)cc(C)c1F (stereo partly drawn) [Compound 708, 3-[(1S,2S)-1-[5-(2,2-dimethyltetrahydropyran-4-yl)-3-fluoro-2-[(1S,8R)-4-(4-fluoro-3,5-dimethyl-phenyl)-3-[3-(4-fluoro-1-methyl-indazol-5-yl)-2-oxo-imidazol-1-yl]-4,5,11-triazatricyclo[6.2.1.02,6]undeca-2,5-diene-11-carbonyl]indol-1-yl]-2-methyl-cyclopropyl]-4H-1,2,4-oxadiazol-5-one] | 0.0085
